Test results from patent publication US20120165403A1, “METHODS OF INHIBITING THE ACTIVITY OF HSP90 AND/OR ARYL HYDROCARBON RECEPTOR” (UNIVERSITY OF ROCHESTER, priority 2004, published 2012).

Molecular target: T1, XAP2 (Mus musculus, UniProt O08915)
T1 construct: His tag; made in house; host or cells: TNT rabbit reticulocyte lysate; partly purified on TALON cobalt resin
T1 sequence (O08915 1-330): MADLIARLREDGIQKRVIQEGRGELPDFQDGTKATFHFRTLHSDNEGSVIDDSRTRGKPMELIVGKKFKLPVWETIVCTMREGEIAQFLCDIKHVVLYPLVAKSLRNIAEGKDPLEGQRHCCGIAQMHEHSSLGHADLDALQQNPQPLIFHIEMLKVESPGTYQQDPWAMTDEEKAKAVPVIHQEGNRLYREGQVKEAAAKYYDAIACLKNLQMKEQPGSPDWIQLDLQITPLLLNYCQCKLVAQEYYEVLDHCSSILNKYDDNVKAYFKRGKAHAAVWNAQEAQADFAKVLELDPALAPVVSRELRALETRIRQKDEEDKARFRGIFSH
Experiment: Affinity chromatography on EGCG-conjugated Sepharose, XAP2
Type: binding
Excerpt: Murine AhR and ARNT cDNA (obtained from J. Whitlock and O. Hankinson, respectively) were inserted into pcDNA3 (Invitrogen, Carlsbad, Calif.). Chicken hsp90 constructs (FIG. 5), c90711hsp (wild-type), c90G94D (wild-type point mutant gly94→Asp (Grenert et al., J. Biol. Chem. 272:23843-23850 (1997), which is hereby incorporated by reference in its entirety), c90D92A (wild-type point mutant Asp92→Ala (Sullivan et al., J. Biol. Chem. 268:20373-20379 (1993), which is hereby incorporated by reference in its entirety), c90N221 (wild-type truncation mutant encoding a.a. 221-728 (Sullivan et al., J. Biol. Chem. 268:20373-20379 (1993), which is hereby incorporated by reference in its entirety)), c90N303 (a.a. 303-728) and c90N538 (a.a. 538-728) were kind gifts from Dr. D. Toft (Rochester, Minn.). The C-terminal truncation mutant c900507 (a.a. 1-221) was obtained from Dr. L. Neckers (Rockville, Md.) (Grenert et al., J. Biol. Chem. 272:23843-23850 (1997); Marcu et al., J. Biol. Chem. 275:37181-37186 (2000), which are hereby incorporated by reference in their entirety). Human p23 cDNA was excised from pQE80-p23 (obtained from W. Chan Stockton, Calif.) by sequential digests using the restriction enzymes Sad (3′-end) and BamHI (5′-end) and inserted into the similarly digested pET28a (Novagen, Madison, Wis.). The mouse histidine-tagged XAP2 construct, pET-AIP (Bell et al., J. Biol. Chem. 275:36407-36414 (2000), which is hereby incorporated by reference in its entirety), was a kind gift from Dr. D. Bell (Nottingham, UK). All constructs are in the T7 orientation with the exception of c900507, which is driven by an SP6 promoter.
AhR, ARNT, hsp90 (wild-type, point mutants, and truncation mutants), p23, and XAP2 were generated (separately) by coupled transcription/translation in rabbit reticulocyte lysate (RRL) using the TNT® system according to the manufacturer's protocol (Promega, Madison Wis.). In this system, ^35S-methionine was included in the transcription/translation mix to generate ^35S-labeled protein.
Immobilized Metal Affinity Chromatography (IMAC) Purification of Histidine-Tagged XAP2. The TALON IMAC method was used for purification of XAP2 from RRL following a modified protocol (Clonetech). A 500 μL (50% slurry) of cobalt resin was washed at room temperature three times with TALON buffer (50 mM Na2PO4, 300 mM NaCl, pH 7.0) according to the manufacturer's protocol. A 175 μL aliquot of undiluted ^35S-XAP2 in RRL was added to a 15 ml conical tube containing the washed resin in TALON buffer for 20 minutes at room temperature end-over-end. […] Each aliquot was collected separately and analyzed for the presence of ^35S-XAP2 by SDS-PAGE followed by Phosphorimaging (PSI; Molecular Dynamics, Sunnyvale, Calif.). […]

With `O=C(O[C@@H]1Cc2c(O)cc(O)cc2O[C@@H]1c1cc(O)c(O)c(O)c1)c1cc(O)c(O)c(O)c1` [EGCG, epigallocatechin gallate] the “binding of XAP2 to EGCG-Sepharose” value (35S-XAP2 in RRL) was “eluted from EGCG-Sepharose”, the “binding of XAP2 to EGCG-Sepharose” value (Hepa cytosol) was “also eluted from EGCG-Sepharose” and the “binding of purified XAP2 to immobilized EGCG” value (His-purified XAP2, devoid of detectable hsp90) was “not specifically eluted from immobilized EGCG”. For the same compound, the “binding of purified XAP2 after reconstitution” value (His-purified XAP2 with purified hsp90 or RRL) was “restores XAP2 elution”.
